Measurements reported in US6083981A, “Sulfonamide substituted aspartic acid interleukin-1β converting enzyme inhibitors” (Warner-Lambert Company, priority 1999, dated 2000).

Experiments:
ICE [1] = target: T1, ICE (Homo sapiens, UniProt P29466); test: ICE inhibition, fluorometric Ki (Ac-Tyr-Val-Ala-Asp-AMC substrate); assay type: biochemical; conditions: 0.24 nM ICE, 15 μM Ac-Tyr-Val-Ala-Asp-AMC, reversible competitive model
T1 sequence (P29466 120-297 limits assumed): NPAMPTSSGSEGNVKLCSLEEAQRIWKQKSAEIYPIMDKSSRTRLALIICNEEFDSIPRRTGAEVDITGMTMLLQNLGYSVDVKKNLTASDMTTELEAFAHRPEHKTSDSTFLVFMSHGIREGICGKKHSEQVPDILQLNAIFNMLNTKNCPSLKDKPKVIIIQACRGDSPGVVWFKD
T1 sequence (P29466 317-404 limits assumed): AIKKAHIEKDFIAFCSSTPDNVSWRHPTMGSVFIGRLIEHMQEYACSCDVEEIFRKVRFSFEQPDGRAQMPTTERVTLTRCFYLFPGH
Protocol: Substrate hydrolysis is monitored for 300 seconds by observing the fluorescence of released AMC using excitation at 380 nm and emission at 460 nm. Mean rates of substrate hydrolysis are evaluated by linear-regression analysis of the fluorescence vs time traces.

Ich-2 (Caspase-4) = target: T2, Ich-2 (Caspase-4) (Homo sapiens, UniProt P49662); test: Ich-2 (Caspase-4) Colorimetric Dose-Response (IC50) Assay; assay type: biochemical; conditions: 64 nM enzyme, 60 μM Ac-Leu-Glu-Val-Asp-pNA
T2 sequence (P49662 81-270 limits assumed): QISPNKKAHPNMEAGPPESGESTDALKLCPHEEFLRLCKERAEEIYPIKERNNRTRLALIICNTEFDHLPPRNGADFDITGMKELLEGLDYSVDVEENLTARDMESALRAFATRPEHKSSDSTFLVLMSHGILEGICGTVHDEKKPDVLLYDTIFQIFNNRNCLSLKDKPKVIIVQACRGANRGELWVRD
T2 sequence (P49662 290-377 limits assumed): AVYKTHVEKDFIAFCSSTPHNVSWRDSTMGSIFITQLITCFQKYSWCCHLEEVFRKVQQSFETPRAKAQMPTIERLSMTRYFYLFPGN
Protocol: (§1) ICE enzyme is diluted to approximately 24 nM in HGE buffer (100 mM Hepes pH 7.5, 0.5 mM EDTA, 20% glycerol, 0.1% Bovine Serum Albumin (BSA), and activated by adding dithiothreitol (DTT) to a final concentration of 5 mM. The activated enzyme is then aliquoted into wells containing inhibitor or vehicle, and the plate is preincubated for 60 minutes at ambient temperature. Substrate (Ac--Tyr--Val--Ala--Asp--pNA) is added to each well to a final concentration of 50 μM, and plates are placed in the microtitre plate-reader thermostated to 25° C. Beginning 5 minutes after addition of substrate, absorbance (405 nm) of wells is monitored for 1 hour, and activity is calculated as the mean rate of change in absorbance during this interval.
Inhibition of Ich-2 enzyme is assayed as described above for ICE, except that enzyme is used at 64 nM, and 60 μM of the Ich-2-specific substrate Ac--Leu--Glu--Val--Asp--pNA is used instead of the ICE substrate Ac--Tyr--Val--Ala--Asp--pNA.

ICE [2] = target: T1, ICE; test: ICE Colorimetric Dose-Response (IC50) Assay; assay type: biochemical; conditions: 24 nM ICE, 60 min preincubation, 50 μM Ac-Tyr-Val-Ala-Asp-pNA, pH 7.5, 25° C
Protocol: Aliquots of each dilution are transferred to a microtitre plate in triplicate.
as §1

[3] = tested on: IL-1β production in human peripheral blood mononuclear cells (PBMCs); test: PBMC Cellular Assay, inhibition of LPS-stimulated IL-1β production; assay type: cell-based; conditions: mature IL-1β by ELISA, 10 ng/mL LPS overnight, 2% human AB serum
Description: (§2) Further evidence that compounds of Formula I, II, and III are inhibitors of ICE is provided by their ability to inhibit IL-1β production in human peripheral blood mononuclear cells (PBMCs) as described herein. PBMCs are isolated from heparinized blood by centrifugation over a ficoll cushion, then washed three times with phosphate-buffered saline. PBMCs are suspended in a medium containing RPMI 1640 with glutamine, penicillin, streptomycin, and 2% human AB serum, then plated at 10^6 cells per well in 96 well flat bottom plates. PBMCs are stimulated overnight with 10 ng/mL of lipopolysaccharide (LPS, E. Coli strain 0111:B4; Calbiochem) in the presence or absence of a compound of Formula I. Medium is harvested and the level of mature IL-1β was determined using an ELISA kit from R & D Systems. Compound inhibition is assessed by determining the concentration of agent which reduces IL-1β levels by 50%. Cells were cultured for an additional four hours in the presence of 3-(4,5-dimethylthiazol-2-yl)-2,5-diphenyltetrazolium bromide (MTT) to determine viability. Compound toxicity can, therefore, be assessed by determining the concentration of agent which kills 50% of the cells (IC50).

[4] = PBMC viability (MTT), compound toxicity; assay type: cell-based; conditions: human, MTT viability, additional four hours, concentration which kills 50% of the cells, read-out: PBMC TC50
Description: as §2

[5] = tested on: human peripheral blood mononuclear cells (PBMCs); test: PBMC viability (MTT), compound toxicity; assay type: cell-based
Description: as §2

Row | Compound | Ki (ICE [1]) | IC50 (Ich-2 (Caspase-4)) | IC50 (ICE [2]) | IC50 ([3]; PBMC) | CC50 [4] | IC50 [3] | CC50 [5]
1 | O=CC(CC(=O)O)NS(=O)(=O)c1ccccc1Oc1ccc(-c2ccccc2)cc1 (stereo not shown) [Example 20, 3-[2-(Biphenyl-4-Yloxy)-Benzenesulfonylamino]-4-Oxo-Butyric Acid] | 0.3 µM | 17 µM | 4.4 µM | 40 µM | > 100 µM |  | 
2 | O=CC(CC(=O)O)NS(=O)(=O)c1ccccc1OCCc1ccccc1 (stereo not shown) [Example 17, 4-Oxo-3-(2-Phenethyloxy-Benzenesulfonylamino)-Butyric Acid] | 0.9 µM | 63 µM | 9.2 µM | 55 µM | > 100 µM |  | 
3 | Cc1cccc(S(=O)(=O)NC(C=O)CC(=O)O)c1Oc1ccccc1 (stereo not shown) [Example 38, 3-(3-Methyl-2-Phenoxy-Benzenesulfonylamino)-4-Oxo-Butyric Acid] | 0.67 µM | 76 µM | 11.2 µM | 85 µM | > 100 µM |  | 
4 | O=C[C@H](CC(=O)O)NS(=O)(=O)c1ccccc1-c1ccccc1 [Example 1, 3-(Biphenyl-2-Sulfoamino)-4-Oxo-Butyric Acid] | 1.6 µM | 88 µM | 20.3 µM | > 100 µM | > 100 µM |  | 
5 | CCC(C)c1ccc(Oc2ccccc2S(=O)(=O)NC(C=O)CC(=O)O)cc1C (stereo not shown) [Example 28, 3-[2-(4-Sec-Butyl-3-Methyl-Phenoxy)-Benzenesulfonylamino]-4-Oxo-Butyric Acid] | 0.1 µM | 4.6 µM | 1 µM | 18 µM | > 100 µM |  | 
6 | CCC(CC)COc1ccccc1S(=O)(=O)NC(C=O)CC(=O)O (stereo not shown) [Example 29] | 0.3 µM | 215 µM | 8.6 µM | 75 µM | > 100 µM |  | 
7 | CCC(C)c1ccc(Oc2ccccc2S(=O)(=O)NC(C=O)CC(=O)O)cc1 (stereo not shown) [Example 19, 3-[2-(4-Sec-Butyl-Phenoxy)-Benzenesulfonylamino]-4-Oxo-Butyric Acid] | 0.5 µM | 4 µM | 2.2 µM | 23 µM | > 100 µM |  | 
8 | O=CC(CC(=O)O)NS(=O)(=O)c1ccccc1Nc1ccccc1 (stereo not shown) [Example 40, 4-Oxo-3-[2-N-Phenyl-Benzenesulfonylamino]-Butyric Acid] | 10 µM | 370 µM | 44 µM | 95 µM | > 100 µM |  | 
9 | 3-(2-Sec-Butoxy-Benzenesulfonylamino)-4-Oxo-Butyric Acid [Example 27] | 3.9 µM | 118 µM | 35 µM |  |  | > 100 µM | > 100 µM
10 | O=CC(CC(=O)O)NS(=O)(=O)c1ccccc1Oc1ccc2ccccc2c1 (stereo not shown) [Example 36, 3-[2-(Naphthalen-2-Yloxy)-Benzenesulfonylamino]-4-Oxo-Butyric Acid] | 0.13 µM | 28 µM | 3.5 µM | 50 µM | > 100 µM |  | 

Continued, in another order:

Row | Ki (ICE [1]) | IC50 (Ich-2 (Caspase-4)) | IC50 (ICE [2]) | Compound | IC50 ([3]; PBMC) | CC50 [4] | IC50 [3] | CC50 [5]
11 | 18 µM | 14 µM | 1.7 µM | Cc1ccc(S(=O)(=O)NC(C=O)CC(=O)O)c(Oc2ccccc2)c1 (stereo not shown) [Example 45, 3-(4-Methyl-2-Phenoxy-Benzenesulfonylamino)-4-Oxo-Butyric Acid] | 70 µM | > 100 µM |  | 
12 | 0.6 µM | 31 µM | 6.1 µM | CCCCC(C)c1ccc(Oc2ccccc2S(=O)(=O)NC(C=O)CC(=O)O)cc1 (stereo not shown) [Example 21, 3-{2-[4-(1-Methyl-Pentyl)-Phenoxy]-Benzenesulfonylamino}-4-Oxo-Butyric Acid] | 33 µM | 70 µM |  | 
13 | 0.41 µM | 6.1 µM | 3.7 µM | CC(C)c1cccc(Oc2ccccc2S(=O)(=O)N[C@H](C=O)CC(=O)O)c1 [Example 8, 3-[2-(3-lsopropyl-Phenoxy)-Benzenesulfonylamino]-4-Oxo-Butyric Acid] | 45 µM | > 100 µM |  | 
14 | 2 µM | 87 µM | 14 µM | CCc1ccccc1Oc1ccccc1S(=O)(=O)NC(C=O)CC(=O)O (stereo not shown) [Example 18, 3-[2-(2-Ethyl-Phenoxy)-Benzenesulfonylamino]-4-Oxo-Butyric Acid] | 80 µM | > 100 µM |  | 
15 | 1.1 µM | 25 µM | 21 µM | O=CC(CC(=O)O)NS(=O)(=O)c1ccccc1Sc1ccccc1 (stereo not shown) [Example 39, 4-Oxo-3-[2-Phenylthio-Benzenesulfonylamino]-Butyric Acid] | > 100 µM | > 100 µM |  | 
16 | 0.062 µM | 2.3 µM | 0.4 µM | O=CC(CC(=O)O)NS(=O)(=O)c1ccccc1OCCc1cccc2ccccc12 (stereo not shown) [Example 31] | 8 µM | > 100 µM |  | 
17 | 2.3 µM | 35 µM | 20 µM | O=CC(CC(=O)O)NS(=O)(=O)c1ccccc1OC1CCCCC1 (stereo not shown) [Example 14, 3-(2-Cyclohexyloxy-Benzenesulfonylamino)-4-Oxo-Butyric Acid] | 90 µM | > 100 µM |  | 
18 | 3 µM | 59 µM | 14 µM | Cc1ccccc1Oc1ccccc1S(=O)(=O)NC(C=O)CC(=O)O (stereo not shown) [Example 12, 4-Oxo-3-(2-o-Tolyloxy-Benzenesulfonylamino)-Butyric Acid] | 90 µM | > 100 µM |  | 
19 | 1 µM | 22 µM | 5.1 µM | O=CC(CC(=O)O)NS(=O)(=O)c1ccccc1Oc1ccc2ccccc2c1Cl (stereo not shown) [Example 15, 3-[2-(1-Chloro-Naphthalen-2-Yloxy)-Benzenesulfonylamino]-4-Oxo-Butyric Acid] | 50 µM | > 100 µM |  | 
20 | 0.54 µM | 6.1 µM | 5.3 µM | CC(C)c1ccc(Oc2ccccc2S(=O)(=O)NC(C=O)CC(=O)O)cc1 (stereo not shown) [Example 6, 3-[2-(4-Isopropyl-Phenoxy)-Benzenesulfonylamino]-4-Oxo-Butyric Acid] | 23.5 µM | > 100 µM |  | 
